Source: US11214803B2, “Modulators of YAP1 expression” (Ionis Pharmaceuticals, Inc., priority 2019, dated 2022)
Strand notation (5' to 3'): a small letter for the sugar, then the base; units joined by * are phosphorothioate-linked, units joined directly phosphodiester-linked; [ ] holds rarer units or linkages, { } end groups; capitals alone tell only the bases. k = constrained ethyl (cEt); [5mC] = 5-methylcytosine; d = 2'-deoxy (DNA)

Assays:
Assay type in all cases: cell-based
[1] = test system: Yap1 mRNA; test: Antisense inhibition of human Yap1 in A-431 cells by cEt gapmers, single dose (Example 3, RTS36584)
Procedure, shortened: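 Read-out is Yap1 mRNA as percent of untreated control, by quantitative RT-PCR normalized to total RNA (RiboGreen). Cells (A-431) received 2,000 nM of 3-10-3 cEt phosphorothioate gapmer via free uptake for roughly 48 hours.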

[2] = test system: Yap1 mRNA; test: Antisense inhibition of human Yap1 in SNU-449 cells by modified oligonucleotides, single dose (Example 5, RTS36584)
Procedure, shortened: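 Values are Yap1 mRNA as percent of untreated control cells, measured by quantitative real-time RT-PCR using RTS36584 and normalised to total RNA by RIBOGREEN. Cells were SNU-449, dosed by free uptake at 2,000 nM for approximately 48 hours.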

[3] = test system: Yap1 mRNA; test: Dose-dependent inhibition of human Yap1 in A-431 cells (Example 8, 10,000 cells per well, RTS4814); details: for Yap1 mRNA, % UTC: A-431 cells, 10,000 cells per well; for IC50 / % UTC (Yap1 mRNA): A-431 cells
Procedure, shortened: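 A-431 cells (10,000/well) dosed with modified oligonucleotides by free uptake; Yap1 mRNA measured ~48 h later with primer-probe set RTS4814, normalized to total RNA (RIBOGREEN). Values are % of untreated control; IC50 from linear regression on log/linear plot.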

[4] = Yap1 mRNA, percent of untreated control, modified oligonucleotides targeting SEQ ID NO: 1 and 2, Table 47
[5] = Table 13, A-431 cells, 5,000 cells per well, free uptake, 2,000 nM modified oligonucleotide, approx. 48 hours, RTS36584, normalized to RIBOGREEN, Yap1 mRNA relative to untreated control cells
[6] = Table 28, Yap1 mRNA as percent of untreated control, 3-10-3 cEt gapmers targeting SEQ ID NO.: 1, and 2
[7] = 31.3 nM, free uptake, approximately 48 hours, RTS4814
[8] = 125.0 nM, free uptake, approximately 48 hours, RTS4814
[9] = 500.0 nM, free uptake, approximately 48 hours, RTS4814
[10] = 2000.00 nM, free uptake, approximately 48 hours, RTS4814
[11] = free uptake, approximately 48 hours, RTS4814, linear regression on log/linear plot
[12] = Table 29, Yap1 mRNA as percent of untreated control, 3-10-3 cEt gapmers targeting SEQ ID NO.: 1, and 2

Row | Substance | Yap1 mRNA, % UTC [3, 7] [% UTC] | Yap1 mRNA, % UTC [3, 8] [% UTC] | Yap1 mRNA, % UTC [3, 9] [% UTC] | Yap1 mRNA, % UTC [3, 10] [% UTC] | IC50 [3, 11] [nM] | other results
1 | 958497 (kA*kT*kA*dT*dG*dG*dA*dA*dA*dT*dT*dG*dT*k[5mC]*kT*k[5mC]) [Compound 958497] | – | – | – | – | – | YAP1 (% UTC) ([1]; Table 10, A-431 cells, 5,000 cells per well, free uptake, 2,000 nM oligonucleotide, approx. 48 hours, primer probe set RTS36584, Yap1 mRNA normalized to RIBOGREEN, percent of untreated control): 1 % UTC; YAP1 (% UT) [2, 4]: 20 % UT
2 | 958590 (kA*kG*kG*dT*dA*dT*dA*dA*d[5mC]*dT*dG*dG*dG*k[5mC]*kA*kA) [Compound 958590] | – | – | – | – | – | YAP1 (% UTC) [1, 5]: 2 % UTC; YAP1 (% UT) ([2]; Table 48, Yap1 mRNA level relative to untreated control, modified oligonucleotides targeting SEQ ID NO.: 1 and 2): 18 % UT
3 | 1074318 (antisense kG*kG*kA*dG*dA*dA*dT*dT*dT*dG*d[5mC]*dT*dG*kT*kG*k[5mC]) [compound 1074318] | 48 | 12 | 6 | 4 | < 20 | YAP1 (% UTC) [1, 6]: 4 % UTC
4 | 1075916 (antisense k[5mC]*kA*kA*dT*dT*dT*dA*dG*dG*dA*dT*dG*d[5mC]*k[5mC]*kT*kT) [compound 1075916] | 73 | 34 | 14 | 8 | 100 | YAP1 (% UTC) ([1]; Table 26, Yap1 mRNA by 3-10-3 cEt gapmers targeting SEQ ID NO.: 1, and 2, percent of untreated control): 6 % UTC
5 | 1076494 (k[5mC]*kT*kA*dA*dT*dT*dG*dA*dA*dG*d[5mC]*dT*dG*kG*k[5mC]*kA; antisense) [compound 1076494] | 34 | 7 | 3 | 2 | < 20 | YAP1 (% UTC) [1, 6]: 3 % UTC
6 | 958500 (kT*k[5mC]*kT*dA*dT*dA*dT*dT*dA*dG*dA*dG*dT*kA*kT*kG) [Compound 958500] | – | – | – | – | – | YAP1 (% UTC) [1, 5]: 5 % UTC; YAP1 (% UT) [2, 4]: 53 % UT
7 | 1076143 (kG*kA*kT*dA*d[5mC]*dG*dA*dA*dA*dA*dA*dA*dG*k[5mC]*k[5mC]*kA; antisense) [compound 1076143] | 81 | 48 | 20 | 9 | 100 | YAP1 (% UTC) [1, 12]: 8 % UTC
8 | 1074221 (antisense kG*kA*kA*dT*dG*dA*dG*d[5mC]*dT*d[5mC]*dG*dA*dA*k[5mC]*kA*kT) [compound 1074221] | 75 | 38 | 14 | 7 | 100 | YAP1 (% UTC) ([1]; Table 27, Yap1 mRNA by 3-10-3 cEt gapmers targeting SEQ ID NO.: 1, and 2, percent of untreated control): 6 % UTC
9 | 1074452 (kT*kG*kA*d[5mC]*dT*dA*dA*dT*dG*dA*dT*dA*dG*k[5mC]*kA*k[5mC]; antisense) [compound 1074452] | – | – | – | – | – | YAP1 (% UTC) ([1]; Table 34, Yap1 mRNA as percent of untreated control, 3-10-3 cEt gapmers targeting SEQ ID NO: 1 and 2, single dose): 3 % UTC; % UTC (Yap1 mRNA) ([3]; 31.3 nM): 88 % UTC; % UTC (Yap1 mRNA) ([3]; 125.0 nM): 28 % UTC; % UTC (Yap1 mRNA) ([3]; 500.0 nM): 9 % UTC; % UTC (Yap1 mRNA) ([3]; 2000.00 nM): 5 % UTC; IC50 ([3]; Yap1 mRNA): 100 nM
10 | 1075093 (k[5mC]*kA*kA*dA*dG*dT*dA*dA*dG*dG*dT*dA*dT*kG*kA*kG; antisense) [compound 1075093] | – | – | – | – | – | YAP1 (% UTC) ([1]; Table 35, Yap1 mRNA as percent of untreated control, 3-10-3 cEt gapmers targeting SEQ ID NO: 1 and 2, single dose): 3 % UTC; % UTC (Yap1 mRNA) ([3]; 31.3 nM): 74 % UTC; % UTC (Yap1 mRNA) ([3]; 125.0 nM): 26 % UTC; % UTC (Yap1 mRNA) ([3]; 500.0 nM): 7 % UTC; % UTC (Yap1 mRNA) ([3]; 2000.00 nM): 4 % UTC; IC50 ([3]; Yap1 mRNA): 100 nM
11 | 1074447 (kA*kA*kT*dG*dA*dT*dA*dG*d[5mC]*dA*d[5mC]*dT*dA*kG*kG*kA; antisense) [compound 1074447] | 47 | 20 | 8 | 5 | < 20 | YAP1 (% UTC) [1, 12]: 4 % UTC
